According to publication PMC4856737 (Bioorganic & medicinal chemistry letters, 2016):

Legend:
[1] = tested on: M. Tb. H37Rv; assay: Minimum bactericidal concentration; format: cell-based, Mycobacterium tuberculosis
[2] = tested on: M. Tb. H37Rv (ATCC 27294); assay: M. Tb. H37Rv dose-response assay; format: cell-based; details: Mycobacterium tuberculosis, ATCC27294|H37RV
[3] = in vitro; details: mouse, % of cellular viability, High conc

SMILES: COC(=O)c1c(C(F)(F)F)[n+]([O-])c2ccc(N3CCN(c4ccc(F)cc4)CC3)cc2[n+]1[O-] [Compound 21]
- bactericidal classification ([1]; ratio MBC/MIC ≤ 4): bactericidal

SMILES: Cc1c(C(=O)/C=C/c2ccccc2)[n+]([O-])c2cc(Cl)ccc2[n+]1[O-] [Compound 3]
- IC50 [2]: 500 to 1500 nM

SMILES: O=C(c1ccco1)c1c(C(F)(F)F)[n+]([O-])c2cc(Cl)c(N3CCOCC3)cc2[n+]1[O-] [Compound 16]
- MBC ([1]; NA: colony counts above the established rejection value ≥ 40, TNTC: too numerous to count): TNTC
- viability [3]: 26%
- IC50 [2]: 500 to 1500 nM

SMILES: CC(=O)c1c(C(F)(F)F)nc2cc(F)c(N3CCSCC3)cc2[n+]1[O-] [Compound 24]
- IC50 [2]: 500 to 1500 nM
